The results in this text go back to PubChem BioAssay AID264 (DTP/NCI, 2004).

Where “and” joins values, the source holds several entries; their conditions need not be identical. Equal entries are not always repeated. Records with an inconclusive call do not appear.

For the assay, the system named is nude mice, LX-1 lung xenograft intrarenal, tumor weight T/C. The experiment in a line: NCI In Vivo Anticancer Drug Screen. Data for tumor model Human Lung LX-1 Xenograft (intrarenal inoculation) in NU/NU Swiss (nude) mice. The following applies: endpoint: mean tumor weight change, higher = larger tumour. A digest of the protocol: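 In vivo, transplantable tumor; compound vs vehicle arms; tumor size measured; value = T/C.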

Setting [1] is: dose: 75.0 mg/kg/injection, schedule: Q04DX003 (sc), vehicle: saline.
Where [2] appears, read: dose: 150.0 mg/kg/injection, schedule: Q04DX003 (sc), vehicle: saline.
Setting [3] is: dose: 200.0 mg/kg/injection, schedule: Q04DX003 (sc), vehicle: saline with Tween-80.
The mark [4] stands for this setting: dose: 400.0 mg/kg/injection, schedule: Q04DX003 (sc), vehicle: saline with Tween-80.
[5] abbreviates: dose: 800.0 mg/kg/injection, schedule: Q04DX003 (sc), vehicle: saline with Tween-80.
Setting [6] is: dose: 600.0 mg/kg/injection, schedule: Q04DX003 (sc), vehicle: saline with Tween-80.
The mark [7] stands for this setting: dose: 1200.0 mg/kg/injection, schedule: Q04DX003 (sc), vehicle: saline with Tween-80.
[8] abbreviates: dose: 100.0 mg/kg/injection, schedule: Q04DX003 (sc), vehicle: saline with Tween-80.
[9] abbreviates: dose: 300.0 mg/kg/injection, schedule: Q04DX003 (sc), vehicle: Klucel (hydroxypropylcellulose) (HPC).
Where [10] appears, read: dose: 600.0 mg/kg/injection, schedule: Q04DX003 (sc), vehicle: Klucel (hydroxypropylcellulose) (HPC).
The mark [11] stands for this setting: dose: 1200.0 mg/kg/injection, schedule: Q04DX003 (sc), vehicle: Klucel (hydroxypropylcellulose) (HPC).
[12] abbreviates: dose: 50.0 mg/kg/injection, schedule: Q01DX010 (sc), vehicle: saline with Tween-80.

As to `N=c1ccn2c(n1)OC1C(O)C(CO)OC12` (stereo unspecified), the T/C reads like this: (dose: 37.5 mg/kg/injection, schedule: Q04DX003 (sc), vehicle: saline) 91 % of control; under setting [1], 95 % of control; under setting [2], 121 % of control; (dose: 300.0 mg/kg/injection, schedule: Q04DX003 (sc), vehicle: saline) 77 % of control; (dose: 300.0 mg/kg/injection, schedule: Q04DX003 (sc), vehicle: suspension in saline) 176 % of control; (dose: 600.0 mg/kg/injection, schedule: Q04DX003 (sc), vehicle: suspension in saline) 231 % of control. The T/C is 24 % of control and 48 % of control (dose: 800.0 mg/kg/injection, schedule: Q04DX003 (sc), vehicle: saline); 41 % of control (dose: 1200.0 mg/kg/injection, schedule: Q04DX003 (sc), vehicle: suspension in saline); 18 % of control and 31 % of control (dose: 1600.0 mg/kg/injection, schedule: Q04DX003 (sc), vehicle: saline); 36 % of control (dose: 2400.0 mg/kg/injection, schedule: Q04DX003 (sc), vehicle: suspension in saline); 6 % of control and 18 % of control (dose: 3200.0 mg/kg/injection, schedule: Q04DX003 (sc), vehicle: saline).
In the case of `C[C@]12CC[C@@H]3c4ccc(OC(=O)Cc5ccc(N(CCCl)CCCl)cc5)cc4CC[C@H]3[C@@H]1CC[C@@H]2OC(=O)Cc1ccc(N(CCCl)CCCl)cc1`, the T/C is, setting by setting: under setting [3], 83 % of control; under setting [4], 107 % of control; under setting [5], 116 % of control; (dose: 1600.0 mg/kg/injection, schedule: Q04DX003 (sc), vehicle: saline with Tween-80) 90 % of control.
As to `CCCCC(=O)OCC(=O)[C@]1(O)Cc2c(O)c3c(c(O)c2[C@@H](OC2CC(NC(=O)C(F)(F)F)C(O)C(C)O2)C1)C(=O)c1c(OC)cccc1C3=O` (stereo partly specified), the T/C (dose: 32.0 mg/kg/injection, schedule: Q01DX010 (sc), vehicle: distilled water + Tween-80) was 84 % of control; the T/C (dose: 512.0 mg/kg/injection, schedule: Q01DX010 (sc), vehicle: distilled water + Tween-80) is 5 % of control and 8 % of control and 26 % of control.
Take `C1CC[N-]CC1.C1CC[N-]CC1.C1CC[N-]CC1.[Cl][Rh]([Cl])[Cl]`: the T/C is 78 % of control under setting [1] and 87 % of control under setting [2].
In the case of `BrC1c2cccc3cccc(c23)C1Br` (stereo unspecified), the T/C under setting [6] is 155 % of control and the T/C under setting [7] is 96 % of control.
`CCCCOCN(COCCCC)C(C)Cc1ccccc1` (stereo unspecified): the T/C is, setting by setting: under setting [8], 71 % of control; under setting [3], 85 % of control; under setting [5], 121 % of control.
`C[C@H](N)C(=O)N[C@@H]1[C@H]2C(=C(O)C[C@@H](O)[C@@H]2O)C(=O)O[C@]1(C)C(Cl)Cl`: the T/C (dose: 1.5 mg/kg/injection, schedule: Q04DX003 (sc), vehicle: Klucel (hydroxypropylcellulose) (HPC)) was 108 % of control; the T/C (dose: 3.0 mg/kg/injection, schedule: Q04DX003 (sc), vehicle: Klucel (hydroxypropylcellulose) (HPC)) is 107 % of control; the T/C (dose: 6.0 mg/kg/injection, schedule: Q04DX003 (sc), vehicle: Klucel (hydroxypropylcellulose) (HPC)) is 81 % of control.
`CC(=O)C1=C(O)C2(O)C(=O)c3c(c(C)c4ccc(C)c(O)c4c3O)CC2C(N)C1=O` (stereo unspecified): the T/C (dose: 50.0 mg/kg/injection, schedule: Q04DX003 (sc), vehicle: saline) was 107 % of control; the T/C (dose: 100.0 mg/kg/injection, schedule: Q04DX003 (sc), vehicle: saline) was 110 % of control; the T/C (dose: 200.0 mg/kg/injection, schedule: Q04DX003 (sc), vehicle: saline) was 61 % of control; the T/C (dose: 400.0 mg/kg/injection, schedule: Q04DX003 (sc), vehicle: saline) was 51 % of control.
As to `O=C(O)C1CC(c2ccccc2)=NN1c1ccccc1` (stereo unspecified), where the note is “dose: 150.0 mg/kg/injection, schedule: Q04DX003 (sc), vehicle: water”, the T/C is 105 % of control.
As to `ClC(Cl)(Cl)C1=NCc2nnn(Cc3ccccc3)c2N1`, the T/C by setting is: (dose: 300.0 mg/kg/injection, schedule: Q04DX003 (sc), vehicle: saline with Tween-80) 72 % of control; under setting [6], 67 % of control; under setting [7], 90 % of control; (dose: 2400.0 mg/kg/injection, schedule: Q04DX003 (sc), vehicle: saline with Tween-80) 36 % of control.
As for `CC1=NNC(=O)C1CCO` (stereo unspecified), the T/C by setting is: under setting [9], 112 % of control; under setting [10], 115 % of control; under setting [11], 82 % of control; (dose: 2400.0 mg/kg/injection, schedule: Q04DX003 (sc), vehicle: Klucel (hydroxypropylcellulose) (HPC)) 106 % of control.
Regarding `CC(=O)OC1=NC(C)c2c1cc(OC(C)=O)[nH]c2=O` (stereo unspecified), the T/C by setting is: (dose: 150.0 mg/kg/injection, schedule: Q04DX003 (sc), vehicle: Klucel (hydroxypropylcellulose) (HPC)) 90 % of control; under setting [9], 87 % of control; under setting [10], 87 % of control; under setting [11], 74 % of control.
For the compound `Cc1ncc([N+](=O)[O-])n1CCSC(N)=O`, the T/C under setting [12] was 90 % of control.
As to `CN1C(=O)NC(c2ccc(Cl)cc2)(c2ccc(Cl)cc2)C1=O`, the T/C was 212 % of control under setting [12]; 191 % of control (dose: 100.0 mg/kg/injection, schedule: Q01DX010 (sc), vehicle: saline with Tween-80); 64 % of control (dose: 400.0 mg/kg/injection, schedule: Q01DX010 (sc), vehicle: saline with Tween-80).
As for `N=C(N)SCc1c2ccccc2c(CSC(=N)N)c2ccccc12`, the T/C reads like this: (dose: 100.0 mg/kg/injection, schedule: Q04DX003 (sc), vehicle: suspension in saline) 104 % of control; (dose: 400.0 mg/kg/injection, schedule: Q04DX003 (sc), vehicle: suspension in saline) 93 % of control; (dose: 800.0 mg/kg/injection, schedule: Q04DX003 (sc), vehicle: suspension in saline) 96 % of control.
With `Cc1ccc2c(c1)N=C(Nc1ccccc1)N=S2(C)=O` (stereo unspecified), the T/C runs as follows: under setting [8], 101 % of control; under setting [3], 90 % of control; under setting [4], 97 % of control.
As to `CCCC(=O)O.CCCC(=O)O.CCCC(=O)O.CCCC(=O)O.[Rh].[Rh]`, the T/C is, setting by setting: (dose: 2.0 mg/kg/injection, schedule: Q04DX003 (sc), vehicle: suspension in saline) 48 % of control; (dose: 4.0 mg/kg/injection, schedule: Q04DX003 (sc), vehicle: suspension in saline) 51 % of control; (dose: 8.0 mg/kg/injection, schedule: Q04DX003 (sc), vehicle: suspension in saline) 42 % of control; (dose: 16.0 mg/kg/injection, schedule: Q04DX003 (sc), vehicle: suspension in saline) 55 % of control.
With `Nc1nc(N)c2c(Cl)c(CNc3ccc(Cl)c(Cl)c3)ccc2n1`, for the setting “dose: 25.0 mg/kg/injection, schedule: Q01DX010 (sc), vehicle: saline with Tween-80”, the T/C is 111 % of control.
Take `CC(=O)NC(C=O)OCC=O` (stereo unspecified): the T/C by setting is: (dose: 100.0 mg/kg/injection, schedule: Q04DX003 (sc), vehicle: water) 116 % of control; (dose: 200.0 mg/kg/injection, schedule: Q04DX003 (sc), vehicle: water) 112 % of control; (dose: 400.0 mg/kg/injection, schedule: Q04DX003 (sc), vehicle: water) 121 % of control.
`O=Cc1ccc(O)c(O)c1`: the T/C is, setting by setting: under setting [8], 172 % of control; under setting [3], 100 % of control; under setting [4], 86 % of control; under setting [5], 73 % of control.
